Values of other authors as cited in PMC2804221 (The Journal of Biological Chemistry, 2009).

In the case of “Exendin-4(9–39): truncated form of exendin-4, and a competitive antagonist”, the “mode of action at GLP-1R” value (GLP-1R) is given as “competitive antagonist” and the IC50 (isolated ECD of GLP-1R) is given as 6 nM.
